These results are taken from ChEMBL document CHEMBL1240514, “Design and synthesis of potent "sulfur-free" transition state analogue inhibitors of 5'-methylthioadenosine nucleosidase and 5'-methylthioadenosine phosphorylase” (J Med Chem, 2010).

Calls of active or inactive are those of the source. No cut-off for these calls is given here.

The first test addresses T1, S-methyl-5'-thioadenosine phosphorylase (Homo sapiens, UniProt Q13126).
T1 sequence (Q13126 whole entry): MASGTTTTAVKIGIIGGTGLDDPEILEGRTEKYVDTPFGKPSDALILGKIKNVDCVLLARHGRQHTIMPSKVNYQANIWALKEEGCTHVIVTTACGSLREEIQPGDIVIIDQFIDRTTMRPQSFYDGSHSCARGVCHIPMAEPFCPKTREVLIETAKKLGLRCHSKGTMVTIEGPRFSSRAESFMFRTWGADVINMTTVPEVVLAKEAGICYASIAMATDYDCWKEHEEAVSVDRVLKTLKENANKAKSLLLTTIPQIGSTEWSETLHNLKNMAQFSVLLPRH
The test is described as follows: Inhibition of His-tagged human MTAP.
`CC[C@H]1CN(Cc2c[nH]c3c(N)ncnc23)C[C@@H]1O` came in with a Ki of 0.7 nM. `C=CC[C@H]1CN(Cc2c[nH]c3c(N)ncnc23)C[C@@H]1O` (racemic) gave a Ki of 3 nM.

Regarding `Nc1ncnc2c(CN3C[C@H](C4CC4)[C@@H](O)C3)c[nH]c12` (racemic), the Ki was found to be 2.1 nM. The Ki values of the last two molecules are within 1.5-fold of each other. On the same count and under the same terms, in the case of `C=C[C@H]1CN(Cc2c[nH]c3c(N)ncnc23)C[C@@H]1O` (racemic) it was 3.2 nM; in that of `C#C[C@H]1CN(Cc2c[nH]c3c(N)ncnc23)C[C@@H]1O` (racemic), 31 nM; in that of `CC[C@H]1CN(Cc2c[nH]c3c(N)ncnc23)C[C@H]1O` (racemic), 34 nM. Same read-out and setting: with `CC(C)C[C@H]1CN(Cc2c[nH]c3c(N)ncnc23)C[C@@H]1O` (racemic) the figure was 1.7 nM. `Nc1ncnc2c(CN3C[C@H](C4CCCC4)[C@@H](O)C3)c[nH]c12` (racemic) showed an inhibition constant (Ki) of 2.6 nM.

Turning to `Nc1ncnc2c(CN3C[C@H](CC4CCCCC4)[C@@H](O)C3)c[nH]c12` (racemic), affinity was put at a Ki of 14 nM. Same read-out and setting: with `Nc1ncnc2c(CN3C[C@H](c4ccccc4)[C@@H](O)C3)c[nH]c12` (racemic) the figure was 8 nM; with `Nc1ncnc2c(CN3C[C@H](O)[C@@H](n4ccnn4)C3)c[nH]c12` (racemic), 59 nM. The molecule `Nc1ncnc2c(CN3C[C@H](CCCSCc4ccccc4)[C@@H](O)C3)c[nH]c12` (racemic) returned a Ki of 71 nM. This Ki and that of the molecule before are within 1.5-fold of each other.

A further test addresses T2, S-methyl-5'-thioadenosine phosphorylase (Homo sapiens) (UniProt Q13126).
T2 sequence (whole entry): T1 sequence (Q13126 whole entry)
Description: Inhibition of His-tagged human MTAP at 2.5 uM.
`Nc1ncnc2c(CN3C[C@H](c4cn(Cc5ccccc5)nn4)[C@@H](O)C3)c[nH]c12` (racemic): the inhibition entry is “inactive”.

In general, Ki refers to a dissociation constant, usually derived from enzyme kinetics or from competition with a known ligand. Low values mean a stronger hold on the target, high ones a looser hold on the target.
